Experimental data from PMC8879959, “In Vivo Antistress Effects of Synthetic Flavonoids in Mice: Behavioral and Biochemical Approach” (Molecules, 2022).
In brackets after ≈: the same amount, converted by molar mass. Read-outs that look alike come from different tables or passages of the source.

What was measured:
[1] = test system: acetic acid-induced stress mice; test: Chemical induced stress (acetic acid model, writhes); format: in vivo, Balb/C mice
Description: The anti-stress effect of synthesized flavonoids was screened for chemical-induced stress using the acetic acid model. Animals were randomly assigned into two groups of 8. The control group received Tween 80 (2%). […] The treatments in all groups were given persistently for a period of 15 days.

mice [2] = test: Swimming endurance test; format: in vivo, Balb/C mice; settings: flavonoids 10 mg/kg, standard diazepam 2 mg/kg IP, 15 days; recorded for 30 min; mean ± SEM, n = 8
Procedure: Animals were divided at random into two groups of 8. Tween 80 (2%) was given to the control group, while animals in each group were treated with 10 mg/kg of each flavonoid. […] All the doses were given constantly for 15 days. On 15th day, one hour after the dose administration, all the animals were allowed to swim in isolation in a glass tank. The time of immobility for each animal was recorded for a period of 30 min [26, 27].

mice [3] = test: Restraint stress, organ weights; format: in vivo, Balb/C mice; settings: restraint stress 2 h; flavonoids 10 mg/kg p.o., standard diazepam 2 mg/kg IP, 15 days; mean ± SEM
Description: (§1) The adhesive tape was removed, and blood samples were collected. After blood collection, the animals were sacrificed, and the brain and vital organs were isolated and weighed.

mice [4] = test: Biochemical parameters in blood after restraint stress; format: in vivo, Balb/C mice; settings: flavonoids 10 mg/kg, standard diazepam 2 mg/kg, 15 days, mean ± SEM
Description: as §1
After restrain test, blood samples were collected for the assessment of blood glucose, triglycerides and total cholesterol levels, using available commercial kits. […]

mice [5] = test: Biochemical parameters in brain after restraint stress; format: in vivo, Balb/C mice; settings: flavonoids 10 mg/kg, standard diazepam 2 mg/kg, 15 days, mean ± SEM
[6] = DPPH free radical scavenging assay; format: biochemical; settings: concentration range 6.25–50 μg/mL, absorbance 517 nm
Procedure: Scavenging activities for DPPH and ABTS were calculated and the IC50 was determined.

[7] = Mus musculus, ip, 360 h; read-out: Antistress Response (%)
[8] = flavonoids 10 mg/kg, standard diazepam 2 mg/kg IP, 15 days; acetic acid i.p. 0.1 mL (6% v/v), writhes within 20 min; mean ± SEM, n = 8
[9] = Mus musculus, ip, 360 h, read-out: Antistress Response (%)

SMILES | inhibition in vivo at 10 mg/kg [1, 7] [%] | Immobility Time (mice [2]) [min] | Weight of Adrenal Gland (mice [3]) | Weight of Brain (mice [3]) [mg] | Weight of Spleen (mice [3]) [mg] | Glucose (blood) (mice [4]) | TGs (blood triglycerides) (mice [4]) | Total Ch (blood total cholesterol) (mice [4]) | Catalase (brain) (mice [5]) [IU/dL] | SOD (brain) (mice [5]) [IU/dL] | TBARS (brain lipid peroxidation) (mice [5]) [nmol/g] | Immobility Time (Min) (mice [2]) | IC50, scavenging against DPPH [6] [mg/L] | Number of Writhes [1, 8] | inhibition in vivo at 10 mg/kg [1, 9] [%]
Cc1ccc(-c2oc3ccccc3c(=O)c2O)cc1 [OF2] | 74.3 | 2.95 ± 0.37 | 7.21 ± 1.87 mg | 414.2 ± 2.51 | 190.5 ± 2.76 | 97.56 ± 1.61 | 42.88 ± 0.41 | 76.82 ± 0.86 | 18.74 ± 0.67 | 9.02 ± 0.54 | 17.74 ± 0.56 |  |  |  | 
CN1C(=O)CN=C(c2ccccc2)c2cc(Cl)ccc21 [Standard, Diazepam, reference compound] |  |  | 10.58 ± 5.77 ^ns mg |  | 158.3 ± 2.89 | 108.2 ± 1.06 mg/dL | 38.52 ± 0.57 | 75.62 ± 0.65 |  |  |  | reduced the immobility time to a significant level |  |  | 
COc1ccc(-c2oc3ccccc3c(=O)c2O)cc1 [OF3] | 80.9 | 2.33 ± 0.28 | 6.79 ± 1.10 mg | 413.6 ± 2.66 | 194.8 ± 2.11 | 97.06 ± 1.71 | 43.11 ± 0.36 | 76.09 ± 0.64 | 19.02 ± 0.77 | 9.58 ± 0.66 | 17.49 ± 0.61 |  | 25.54 ± 1.21 (≈ 95.2 µM) |  | 
CN(C)c1ccc(-c2oc3ccccc3c(=O)c2O)cc1 [OF5] | 63.3 | 3.25 ± 0.29 | 8.04 ± 1.18 mg | 400.5 ± 2.21 | 186.3 ± 2.74 | 101.09 ± 1.14 | 46.24 ± 0.39 | 77.91 ± 0.97 | 17.06 ± 0.61 | 8.11 ± 0.51 | 18.56 ± 0.51 |  |  | 16.44 ± 3.04 | 
O=c1c(O)c(-c2ccccc2)oc2ccccc12 [OF1] | 63.4 | 4.32 ± 0.31 | 8.09 ± 1.34 mg | 397.4 ± 3.76 | 188.4 ± 2.24 | 105 ± 1.77 mg/dL | 51.22 ± 0.66 | 80.81 ± 0.72 | 17.02 ± 0.71 | 8.46 ± 0.76 | 19.25 ± 0.51 |  |  | 17.32 ± 2.33 | 
O=c1c(O)c(-c2ccc(Cl)cc2)oc2ccccc12 [OF4] |  | 3.44 ± 0.25 | 7.91 ± 1.91 mg | 401.8 ± 2.34 | 183.9 ± 2.56 | 101.15 ± 1.66 | 46.92 ± 0.44 | 78.33 ± 0.76 | 17.45 ± 0.66 | 8.35 ± 0.64 | 18.67 ± 0.76 |  |  | 14.18 ± 2.17 | 67.1
O=c1cc(-c2ccc(C(F)(F)F)cc2)oc2ccccc12 [F6] | 64.1 | 3.41 ± 0.23 | 8.09 ± 1.77 mg | 408.3 ± 2.60 | 171.1 ± 2.40 | 102.09 ± 1.62 | 47.26 ± 0.44 | 82.01 ± 0.79 | 17.36 ± 0.62 | 8.13 ± 0.51 | 18.96 ± 0.60 |  | 174.24 ± 2.71 (≈ 600 µM) | 17.01 ± 1.89 | 
O=c1cc(-c2ccccc2)oc2ccccc12 [F1] | 58.9 | 4.05 ± 0.45 | 8.13 ± 1.69 mg | 398.1 ± 2.57 | 171.5 ± 2.71 | 105 ± 2.15 mg/dL | 54.39 ± 0.87 | 81.33 ± 0.61 | 16.33 ± 0.69 | 7.96 ± 0.60 | 19.42 ± 0.51 |  |  | 19.45 ± 1.89 | 
CN(C)c1ccc(-c2cc(=O)c3ccccc3o2)cc1 [F5] | 64.6 | 3.64 ± 0.21 | 8.12 ± 1.81 mg | 412.7 ± 2.81 | 170.3 ± 2.61 | 101.33 ± 1.72 | 46.72 ± 0.51 | 81.82 ± 0.85 | 17.11 ± 0.51 | 8.04 ± 0.57 | 19.02 ± 0.71 |  |  | 16.31 ± 2.58 | 
O=c1c(O)c(-c2ccc(C(F)(F)F)cc2)oc2ccccc12 [OF6] |  | 3.34 ± 0.25 | 8.11 ± 1.31 mg | 403.9 ± 2.239 | 179.1 ± 2.30 | 100.32 ± 1.29 | 44.02 ± 0.30 | 77.02 ± 0.97 | 17.01 ± 0.52 | 8.03 ± 0.49 | 18.10 ± 0.51 |  | 122.33 ± 1.98 (≈ 399 µM) | 15.88 ± 2.11 | 66.5
COc1ccc(-c2cc(=O)c3ccccc3o2)cc1 [F3] | 74.4 | 2.88 ± 0.26 | 7.22 ± 1.51 mg | 411.3 ± 2.93 | 181.7 ± 2.06 | 98.45 ± 1.51 | 44.69 ± 0.37 | 78.43 ± 0.93 | 18.92 ± 0.51 | 9.42 ± 0.87 | 18.44 ± 0.63 |  |  |  | 
Cc1ccc(-c2cc(=O)c3ccccc3o2)cc1 [F2] | 72.3 | 3.12 ± 0.38 | 7.63 ± 1.11 mg | 401.6 ± 3.11 | 180.4 ± 2.38 | 99.23 ± 1.69 | 45.09 ± 0.67 | 78.61 ± 0.78 | 18.21 ± 0.61 | 8.77 ± 0.59 | 18.72 ± 0.62 |  |  |  | 
O=c1cc(-c2ccc(Cl)cc2)oc2ccccc12 [F4] |  | 3.21 ± 0.19 | 8.03 ± 1.98 mg | 402.4 ± 3.19 | 173.1 ± 2.66 | 100.92 ± 1.91 | 47.51 ± 0.38 | 80.76 ± 0.91 | 17.88 ± 0.59 | 9.31 ± 0.78 | 19.09 ± 0.49 |  |  | 16.21 ± 2.09 | 65.8
